According to patent publication US8586611B2 (priority 2005, dated 2013):

What was measured:
Format in all cases: in vivo
[1] = system: Pseudoperonospora cubensis; assay: Test A: cucumber downy mildew, spray the day before inoculation (disease rating, 100 = 100% disease control); conditions: spray the day before inoculation, compounds without asterisk (not 40 or 10 ppm)
Source text: The test compounds were first dissolved in acetone in an amount equal to 3% of the final volume and then suspended at the desired concentration (in ppm) in acetone and purified water (50/50 mix by volume) containing 250 ppm of the surfactant Trem® 014 (polyhydric alcohol esters). The resulting test suspensions were then used in tests A-E. Spraying a 200 ppm test suspension to the point of run-off on the test plants was the equivalent of a rate of 500 g/ha.
The test suspension was sprayed to the point of run-off on cucumber seedlings. The following day the seedlings were inoculated with a spore suspension of Pseudoperonospora cubensis (the causal agent of cucumber downy mildew) and incubated in a saturated atmosphere at 20° C. for 24 h, and then moved to a growth chamber at 20° C. for 6 days, after which disease ratings were made.
Results for Tests A-F are given in Table A. In the table, a rating of 100 indicates 100% disease control and a rating of 0 indicates no disease control (relative to the controls). A dash (-) indicates no test results.

Phytophthora infestans = assay: whole plant or invertebrate; conditions: tomato late blight; spray the day before inoculation; compounds without asterisk (not 40 or 10 ppm)
[2] = system: Erysiphe graminis f. sp. tritici; assay: Test E: wheat powdery mildew, spray the day before inoculation (disease rating, 100 = 100% disease control); conditions: spray the day before inoculation, compounds without asterisk (not 40 or 10 ppm)
How it was run: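 Wheat seedlings sprayed to run-off with compound suspended in acetone/water 50/50 with 250 ppm Trem 014 (200 ppm equivalent to 500 g/ha); inoculated next day with Erysiphe graminis f. sp. tritici spore dust. Kept 7 days at 20° C, then rated 0–100% disease control versus controls.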

Plasmopara viticola = assay: Test B: grape downy mildew, spray 24 h after inoculation (disease rating, 100 = 100% disease control); conditions: spray 24 h after inoculation, compounds without asterisk (not 40 or 10 ppm)
How it was run: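 Grape seedlings were inoculated with Plasmopara viticola and held 24 h saturated at 20 °C, then sprayed to run-off with compound suspension (acetone/water with 250 ppm Trem 014; 200 ppm ≈ 500 g/ha). After 5 days at 20 °C and 24 h saturation, disease was rated from 0 to 100% control versus untreated.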

Substance | Test A disease rating (100 = 100% disease control, 0 = no disease control) [1] [%] | Test C disease rating (100 = 100% disease control, 0 = no disease control) (Phytophthora infestans) [%] | Test E disease rating (100 = 100% disease control, 0 = no disease control) [2] [%] | Test B disease rating (100 = 100% disease control, 0 = no disease control) (Plasmopara viticola) [%]
N-methyl-1-[1-[[5-methyl-3-(trifluoromethyl)-1H-pyrazol-1-yl]acetyl]-4-piperidinyl]-N-[(1R)-1,2,3,4-tetrahydro-1-naphthalenyl]-1H-pyrazole-4-carboxamide [Compound 233] | 96 | 91 | 29 | 51
N-methyl-2-[1-[[5-methyl-3-(trifluoromethyl)-1H-pyrazol-1-yl]acetyl]-4-piperidinyl]-N-(1,2,3,4-tetrahydro-1-naphthalenyl)-4-thiazolecarboxamide [Compound 188] | 90 | 29 | 86 | 6
N-methyl-2-[1-[[5-methyl-3-(trifluoromethyl)-1H-pyrazol-1-yl]acetyl]-4-piperidinyl]-N-(1,2,3,4-tetrahydro-2-methyl-1-naphthalenyl)-4-thiazolecarboxamide [Compound 193] | 93 | 31 | 21 | 20
N-methyl-2-[1-[[5-methyl-3-(trifluoromethyl)-1H-pyrazol-1-yl]acetyl]-4-piperidinyl]-N-[(1R)-1-phenylethyl]-4-thiazolecarboxamide [Compound 70] | 0 | 33 | 0 | 0
N-methyl-2-[1-[[5-methyl-3-(trifluoromethyl)-1H-pyrazol-1-yl]acetyl]-4-piperidinyl]-N-[(1R)-1-phenylpropyl]-4-oxazolecarboxamide [Compound 152] | 0 | 0 | 0 | 0
N-methyl-2-[1-[[5-methyl-3-(trifluoromethyl)-1H-pyrazol-1-yl]acetyl]-4-piperidinyl]-N-[(1R,4R)-1,2,3,4-tetrahydro-4-hydroxy-1-naphthalenyl]-4-thiazolecarboxamide [Compound 206] | 99 | 31 | 0 | 5
N-methyl-2-[1-[[5-methyl-3-(trifluoromethyl)-1H-pyrazol-1-yl]acetyl]-4-piperidinyl]-N-[(1R,4S)-1,2,3,4-tetrahydro-4-hydroxy-1-naphthalenyl]-4-thiazolecarboxamide [Compound 191] | 97 | 90 | 0 | 17
N-methyl-2-[4-[[5-methyl-3-(trifluoromethyl)-1H-pyrazol-1-yl]acetyl]-1-piperazinyl]-N-[(1R)-1,2,3,4-tetrahydro-1-naphthalenyl]-4-thiazolecarboxamide [Compound 220] | 0 | 0 | 0 | 0
